From US4496587A, “Inhibition of bacterial toxin release by prostaglandins” (priority 1983, dated 1985)

Tests used:
[1] = test system: C. difficile; assay: cytotoxin in filtrates of C. difficile cultures grown in the presence of prostaglandin (Prostaglandin Incubated with C. difficile), titrated on HFF mono-layers; format: cell-based; conditions: for effectiveness as an antitoxic prostaglandin: by itself, in words; for decrease of the amount of toxin released from C. difficile: assay described in Example 1, pharmacologically practical amount, definition of antitoxic prostaglandin
Procedure: (§1) Forty-five filtrates of C. difficile cultures grown in the presence of different concentrations of 16,16-dimethyl-PGE2 were assayed for cytotoxin. (ATCC 9689 stands for American Type Culture Collection number 9689, and patients 1, 2, 3, and 4 refer to cultures extracted from various hospital patients.) The first 25 cultures were incubated with the prostaglandin (in the concentrations noted) for 24 hr. These cultures were then filtered and the supernate was submitted for cytotoxicity testing. The remaining 20 cultures were incubated without prostaglandin, filtered and then the prostaglandin was added to each supernate prior to cytotoxicity testing. The cytotoxin assay utilized human skin fibroblasts (HFF) as mono-layers in Costar 24 well-trays. The results are presented as the reciprocal of the cytotoxin dilution (serial 10-fold) causing altered cell morphology for 50% of the cells in the mono-layer. (see Table II.) Thus, 1000 means that a 1:1000 dilution of the filtrate caused an altered cell morphology for 50% of the cells in the mono-layer. Therefore, the higher the number, the more cytotoxin is present.

[2] = by acid in the stomach; cited from earlier work
[3] = test system: C. difficile; assay: cytotoxin assay, prostaglandin added to supernate after incubation of C. difficile (Prostaglandin Added After Incubation), titrated on HFF mono-layers; format: cell-based
Procedure: as §1

[4] = test system: Human skin fibroblasts (HFF); assay: attempted protection of HFF from cytotoxins from different sources (altered cell morphology); format: cell-based
Procedure: To determine whether the presence of 16,16-dimethyl-PGE2 might interfere with the cytotoxin assay, several concentrations of cytotoxins were assayed in the presence of various concentrations of a prostaglandin.
The cytotoxins used were from hamster cecum, a filtrate of C. difficile broth culture, and the filtate of human feces from a patient with "antibiotic diarrhea". Serial 10-fold dilutions of the cytotoxins were prepared in BME-3% fbs. (BME 3% fbs is basal medium of Eagle with 3% fetal bovine (BOVINE Serum and antibiotics.))
16,16-Dimethyl-PGE2 (5 mg/ml in absolute ethanol) was used and further diluted in absolute ethanol.
Human skin fibroblasts (HFF) monolayers in wells of Costar trays (24 well) were refed with 0.8 ml BME-3% fbs. 0.1 ml of the various prostaglandin concentrations and absolute ethanol alone were added to the appropriate wells. Separate wells were then treated with (0.1 ml) of the appropriate dilution of each cytotoxin. The trays were incubated at 37° and examined microscopically for evidence of altered cell morphology.
Attempted protection of HFF from cytotoxins from different
sources by 16,16-dimethyl-PGE2. The results are expressed as the
number of cells showing evidence of altered morphology due to
cytotoxin. (0 = no change, +1 = 25% of the cells are rounded,
+ 2 = 50% of the cells are rounded, +3 = 75% of the cells are
rounded, and +4 = 100% of the cells are rounded. Tox =
toxic concentration of prostaglandin.)

In the case of `CCCCC[C@@](C)(O)/C=C/[C@H]1[C@H](O)CC(=O)[C@@H]1C/C=C\CCCC(=O)O` [15(R)-15-methyl-PGE2], the “effectiveness as an antitoxic prostaglandin” value [1] is listed as “not highly effective” and the “conversion in mammalian metabolism” value [2] is listed as “converted by acid in the stomach to 15(S)-15-methyl-PGE2”.

For `CCCCC[C@](C)(O)/C=C/[C@H]1[C@H](O)CC(=O)[C@@H]1C/C=C\CCCC(=O)O` [15(S)-15-methyl-PGE2], the “decrease of the amount of toxin released from C. difficile” value (from here on “decrease of the amount of toxin released”) [1] was “at least 90%” and the “effectiveness as an antitoxic prostaglandin” value [1] was “effective”.

With `CCCCC(C)(C)[C@@](C)(O)/C=C/[C@H]1[C@H](O)CC(=O)[C@@H]1C/C=C\CCCC(=O)O` [15(S)-16,16-trimethyl-PGE2] the “decrease of the amount of toxin released” value [1] was “at least 90%”.

For `CCCCC(C)(C)[C@H](O)/C=C/[C@H]1[C@H](O)CC(=O)[C@@H]1C/C=C\CCCC(=O)O` [16,16-dimethyl-PGE2], the “Cytotoxin Dilution (reciprocal of the cytotoxin dilution causing altered cell morphology for 50% of the cells)” value ([1]; Control, 24 hr, prostaglandin 1 mcg/ml) was < 10, the “Cytotoxin Dilution (reciprocal of the cytotoxin dilution causing altered cell morphology for 50% of the cells)” value ([1]; Control, 24 hr, prostaglandin 10 mcg/ml) was < 10 and the “Cytotoxin Dilution (reciprocal of the cytotoxin dilution causing altered cell morphology for 50% of the cells)” value ([1]; Control, 24 hr, prostaglandin 50 mcg/ml) was < 10. For the same compound, the “amount of toxin with increasing amount of prostaglandin” value ([1]; Table II overall) was “as the amount of prostaglandin increases, the amount of toxin decreases”, the “decrease of the amount of toxin released” value [1] was “at least 90%” and the “Cytotoxin Dilution (reciprocal of the cytotoxin dilution causing altered cell morphology for 50% of the cells)” value ([1]; incubated with C. difficile ATCC #9689, 24 hr, prostaglandin 1 mcg/ml) was 100-1000. For the same compound, the “Cytotoxin Dilution (reciprocal of the cytotoxin dilution causing altered cell morphology for 50% of the cells)” value ([1]; incubated with C. difficile ATCC #9689, 24 hr, prostaglandin 10 mcg/ml) was 100, the “Cytotoxin Dilution (reciprocal of the cytotoxin dilution causing altered cell morphology for 50% of the cells)” value ([1]; incubated with C. difficile ATCC #9689, 24 hr, prostaglandin 50 mcg/ml) was 10 and the “Cytotoxin Dilution (reciprocal of the cytotoxin dilution causing altered cell morphology for 50% of the cells)” value ([1]; incubated with C. difficile strain Patient 1, 24 hr, prostaglandin 1 mcg/ml) was 100-1000. The “Cytotoxin Dilution (reciprocal of the cytotoxin dilution causing altered cell morphology for 50% of the cells)” value ([1]; incubated with C. difficile strain Patient 1, 24 hr, prostaglandin 10 mcg/ml) was 10, the “Cytotoxin Dilution (reciprocal of the cytotoxin dilution causing altered cell morphology for 50% of the cells)” value ([1]; incubated with C. difficile strain Patient 1, 24 hr, prostaglandin 50 mcg/ml) was 10 and the “Cytotoxin Dilution (reciprocal of the cytotoxin dilution causing altered cell morphology for 50% of the cells)” value ([1]; incubated with C. difficile strain Patient 2, 24 hr, prostaglandin 1 mcg/ml) was 10-100. For the same compound, the “Cytotoxin Dilution (reciprocal of the cytotoxin dilution causing altered cell morphology for 50% of the cells)” value ([1]; incubated with C. difficile strain Patient 2, 24 hr, prostaglandin 10 mcg/ml) was 10-100, the “Cytotoxin Dilution (reciprocal of the cytotoxin dilution causing altered cell morphology for 50% of the cells)” value ([1]; incubated with C. difficile strain Patient 2, 24 hr, prostaglandin 50 mcg/ml) was < 10 and the “Cytotoxin Dilution (reciprocal of the cytotoxin dilution causing altered cell morphology for 50% of the cells)” value ([1]; incubated with C. difficile strain Patient 3, 24 hr, prostaglandin 1 mcg/ml) was < 10. The “Cytotoxin Dilution (reciprocal of the cytotoxin dilution causing altered cell morphology for 50% of the cells)” value ([1]; incubated with C. difficile strain Patient 3, 24 hr, prostaglandin 10 mcg/ml) was < 10, the “Cytotoxin Dilution (reciprocal of the cytotoxin dilution causing altered cell morphology for 50% of the cells)” value ([1]; incubated with C. difficile strain Patient 3, 24 hr, prostaglandin 50 mcg/ml) was < 10 and the “Cytotoxin Dilution (reciprocal of the cytotoxin dilution causing altered cell morphology for 50% of the cells)” value ([1]; incubated with C. difficile strain Patient 4, 24 hr, prostaglandin 1 mcg/ml) was 100. For the same compound, the “Cytotoxin Dilution (reciprocal of the cytotoxin dilution causing altered cell morphology for 50% of the cells)” value ([1]; incubated with C. difficile strain Patient 4, 24 hr, prostaglandin 10 mcg/ml) was 10-100, the “Cytotoxin Dilution (reciprocal of the cytotoxin dilution causing altered cell morphology for 50% of the cells)” value ([1]; incubated with C. difficile strain Patient 4, 24 hr, prostaglandin 50 mcg/ml) was 10 and the “Cytotoxin Dilution (reciprocal of the cytotoxin dilution causing altered cell morphology for 50% of the cells)” value ([3]; ATCC #9689, prostaglandin 1 mcg/ml) was 100-1000. The “Cytotoxin Dilution (reciprocal of the cytotoxin dilution causing altered cell morphology for 50% of the cells)” value ([3]; ATCC #9689, prostaglandin 10 mcg/ml) was 10-100, the “Cytotoxin Dilution (reciprocal of the cytotoxin dilution causing altered cell morphology for 50% of the cells)” value ([3]; ATCC #9689, prostaglandin 50 mcg/ml) was 10 and the “Cytotoxin Dilution (reciprocal of the cytotoxin dilution causing altered cell morphology for 50% of the cells)” value ([3]; Patient 1, prostaglandin 1 mcg/ml) was 1000. The “Cytotoxin Dilution (reciprocal of the cytotoxin dilution causing altered cell morphology for 50% of the cells)” value ([3]; Patient 1, prostaglandin 10 mcg/ml) was < 100, the “Cytotoxin Dilution (reciprocal of the cytotoxin dilution causing altered cell morphology for 50% of the cells)” value ([3]; Patient 1, prostaglandin 50 mcg/ml) was 100 and the “Cytotoxin Dilution (reciprocal of the cytotoxin dilution causing altered cell morphology for 50% of the cells)” value ([3]; Patient 2, prostaglandin 1 mcg/ml) was 10. For the same compound, the “Cytotoxin Dilution (reciprocal of the cytotoxin dilution causing altered cell morphology for 50% of the cells)” value ([3]; Patient 2, prostaglandin 10 mcg/ml) was 10, the “Cytotoxin Dilution (reciprocal of the cytotoxin dilution causing altered cell morphology for 50% of the cells)” value ([3]; Patient 2, prostaglandin 50 mcg/ml) was < 10 and the “Cytotoxin Dilution (reciprocal of the cytotoxin dilution causing altered cell morphology for 50% of the cells)” value ([3]; Patient 3, prostaglandin 1 mcg/ml) was < 10. For the same compound, the “Cytotoxin Dilution (reciprocal of the cytotoxin dilution causing altered cell morphology for 50% of the cells)” value ([3]; Patient 3, prostaglandin 10 mcg/ml) was < 10, the “Cytotoxin Dilution (reciprocal of the cytotoxin dilution causing altered cell morphology for 50% of the cells)” value ([3]; Patient 4, prostaglandin 1 mcg/ml) was 100-1000 and the “Cytotoxin Dilution (reciprocal of the cytotoxin dilution causing altered cell morphology for 50% of the cells)” value ([3]; Patient 4, prostaglandin 10 mcg/ml) was 100. For the same compound, the “Cytotoxin Dilution (reciprocal of the cytotoxin dilution causing altered cell morphology for 50% of the cells)” value ([3]; Patient 4, prostaglandin 50 mcg/ml) was 10-100, the “cells showing evidence of altered morphology due to cytotoxin” value ([4]; C. difficile filtrate 1:10, prostaglandin 0.01 mcg/ml) was 4 and the “cells showing evidence of altered morphology due to cytotoxin” value ([4]; C. difficile filtrate 1:10, prostaglandin 0.1 mcg/ml) was 4. The “cells showing evidence of altered morphology due to cytotoxin” value ([4]; C. difficile filtrate 1:10, prostaglandin 1 mcg/ml) was 4, the “cells showing evidence of altered morphology due to cytotoxin” value ([4]; C. difficile filtrate 1:10, prostaglandin 10 mcg/ml) was 4 and the “cells showing evidence of altered morphology due to cytotoxin” value ([4]; C. difficile filtrate 1:100, prostaglandin 0.01 mcg/ml) was 4. The “cells showing evidence of altered morphology due to cytotoxin” value ([4]; C. difficile filtrate 1:100, prostaglandin 0.1 mcg/ml) was 4, the “cells showing evidence of altered morphology due to cytotoxin” value ([4]; C. difficile filtrate 1:100, prostaglandin 1 mcg/ml) was 4 and the “cells showing evidence of altered morphology due to cytotoxin” value ([4]; C. difficile filtrate 1:100, prostaglandin 10 mcg/ml) was 4. For the same compound, the “cells showing evidence of altered morphology due to cytotoxin” value ([4]; C. difficile filtrate 1:1000, prostaglandin 0.01 mcg/ml) was 3, the “cells showing evidence of altered morphology due to cytotoxin” value ([4]; C. difficile filtrate 1:1000, prostaglandin 0.1 mcg/ml) was 3 and the “cells showing evidence of altered morphology due to cytotoxin” value ([4]; C. difficile filtrate 1:1000, prostaglandin 1 mcg/ml) was 3. The “cells showing evidence of altered morphology due to cytotoxin” value ([4]; C. difficile filtrate 1:1000, prostaglandin 10 mcg/ml) was 3, the “cells showing evidence of altered morphology due to cytotoxin” value ([4]; Human cytotoxin 1:10, prostaglandin 0.01 mcg/ml) was 4 and the “cells showing evidence of altered morphology due to cytotoxin” value ([4]; Human cytotoxin 1:10, prostaglandin 0.1 mcg/ml) was 4. For the same compound, the “cells showing evidence of altered morphology due to cytotoxin” value ([4]; Human cytotoxin 1:10, prostaglandin 1 mcg/ml) was 4, the “cells showing evidence of altered morphology due to cytotoxin” value ([4]; Human cytotoxin 1:10, prostaglandin 10 mcg/ml) was 4 and the “cells showing evidence of altered morphology due to cytotoxin” value ([4]; Human cytotoxin 1:100, prostaglandin 0.01 mcg/ml) was 4. For the same compound, the “cells showing evidence of altered morphology due to cytotoxin” value ([4]; Human cytotoxin 1:100, prostaglandin 0.1 mcg/ml) was 4, the “cells showing evidence of altered morphology due to cytotoxin” value ([4]; Human cytotoxin 1:100, prostaglandin 1 mcg/ml) was 4 and the “cells showing evidence of altered morphology due to cytotoxin” value ([4]; Human cytotoxin 1:100, prostaglandin 10 mcg/ml) was 3. The “cells showing evidence of altered morphology due to cytotoxin” value ([4]; Human cytotoxin 1:1000, prostaglandin 0.01 mcg/ml) was 1, the “cells showing evidence of altered morphology due to cytotoxin” value ([4]; Human cytotoxin 1:1000, prostaglandin 0.1 mcg/ml) was 1 and the “cells showing evidence of altered morphology due to cytotoxin” value ([4]; Human cytotoxin 1:1000, prostaglandin 1 mcg/ml) was 1. For the same compound, the “cells showing evidence of altered morphology due to cytotoxin” value ([4]; Human cytotoxin 1:1000, prostaglandin 10 mcg/ml) was 1, the “effect on the interaction of the cytotoxin with the cell” value ([4]; conclusion from Table III) was “did not affect the interaction of the cytotoxin with the cell” and the “protecting fibroblasts from morphological changes due to the action of the cytotoxin” value ([4]; cytotoxins from three different sources) was “ineffective”.
